Reference: US11491120B2, “Pharmacological prophylactics against stress-induced affective disorders in females” (The Trustees of Columbia University in the City of New York, priority 2017, dated 2022)
Entries after “also recorded” stand apart in the source; their conditions may differ.

How the values were obtained:
female 129S6/SvEv mice [1] = assay: Forced swim test (FST), immobility time, after stress; details: for Immobility in the FST (Day 1 and Day 2) vs saline: drug administered 1 hour after 3-shock CFC stressor; for Prophylactic efficacy against stress-induced depressive-like behavior: single injection 1 week before stressor
female 129S6/SvEv mice [2] = assay: Forced swim test after 10-day chronic immobilization stress (CIS); type: in vivo, mouse; details: 10 mg/kg, 1 week prophylactic drug
Experimental: The CIS procedure induces a depressive-like phenotype in test subjects and has both predictive and face validity (54). Here, we used an adapted protocol from Ramirez et al. (55).
As previously tested in male mice (18), we validated our findings in a model of chronic stress. […] Drug dosages were chosen based on results from FIG. 1 and used for the remainder of the project unless otherwise specified. One week later, a 10-day CIS protocol was administered. Subsequently, mice were tested in the FST.

[3] = Ovariectomized, same drug, hormone Vehicle vs. E2/P4 replacement, 1 week prophylactic drug, Forced Swim Test Day 2, K (10), (2R,6R)-HNK (0.025), FIG. 5F
[4] = Sal vs. K (2.5), Fisher's PLSD, 3 day prophylactic drug/Forced Swim Test Day 1
[5] = Sal vs. K (10), Fisher's PLSD, 1 week prophylactic drug, learned helplessness stress, Forced Swim Test Day 1
[6] = Sal vs. K (10), Fisher's PLSD, 3 day prophylactic drug/Forced Swim Test Day 1
[7] = Sal vs. K (10), Fisher's PLSD, Antidepressant drug/Forced Swim Test Day 2
[8] = Sal vs. K (30), Fisher's PLSD, 3 day prophylactic drug/Forced Swim Test Day 1
[9] = Sham-operated females, 1 week prophylactic drug, Forced Swim Test Day 2, K (10), (2R,6R)-HNK (0.025), FIG. 5C
[10] = female mice, listed as (R, S)-ketamine

CNC1(c2ccccc2Cl)CCCCC1=O (racemic) [(R,S)-ketamine, (RS)-2-(2-chlorophenyl)-2-(methylamino)cyclohexanone]
significance (*), Fisher's PLSD, Immobility Time Average (min 3-6), E2/P4 Sal vs. E2/P4 drug (female 129S6/SvEv mice [1]; Ovariectomized, E2/P4 replacement, 1 week prophylactic drug, Forced Swim Test Day 2, K (10), (2R,6R)-HNK (0.025), FIG. 5F): * (* p<0.05)
p, Fisher's PLSD, Immobility Time Average (min 3-6), Vehicle Sal vs. Vehicle drug (female 129S6/SvEv mice [1]; Ovariectomized, hormone Vehicle, 1 week prophylactic drug, Forced Swim Test Day 2, K (10), (2R,6R)-HNK (0.025), FIG. 5F): 0.9193
p, Fisher's PLSD, Immobility Time Average (min 3-6), Vehicle drug vs. E2/P4 drug (female 129S6/SvEv mice [1]; [3]): 0.0089
significance (*), Fisher's PLSD, Immobility Time Average (min 3-6), Vehicle drug vs. E2/P4 drug (female 129S6/SvEv mice [1]; [3]): ** (** p<0.01)
p, Immobility Time (min 1) (female 129S6/SvEv mice [1]; [4]): 0.9401
p, Immobility Time (min 2) (female 129S6/SvEv mice [1]; [4]): 0.6027
p, Immobility Time (min 3) (female 129S6/SvEv mice [1]; [4]): 0.5146
p, Immobility Time (min 4) (female 129S6/SvEv mice [1]; [4]): 0.9632
p, Immobility Time (min 5) (female 129S6/SvEv mice [1]; [4]): 0.6706
p, Immobility Time (min 6) (female 129S6/SvEv mice [1]; [4]): 0.7202
p, Immobility Time Average (min 3-6) (female 129S6/SvEv mice [1]; [4]): 0.6884
*, Immobility Time (min 1) (female 129S6/SvEv mice [1]; [5]): *** (*** p<0.0001)
*, Immobility Time (min 2) (female 129S6/SvEv mice [1]; [5]): ** (** p<0.01)
*, Immobility Time (min 3) (female 129S6/SvEv mice [1]; [5]): ** (** p<0.01)
*, Immobility Time (min 4) (female 129S6/SvEv mice [1]; [5]): ** (** p<0.01)
*, Immobility Time (min 5) (female 129S6/SvEv mice [1]; [5]): ** (** p<0.01)
*, Immobility Time (min 6) (female 129S6/SvEv mice [1]; [5]): *** (*** p<0.0001)
*, Immobility Time Average (min 1-6) (female 129S6/SvEv mice [1]; [5]): *** (*** p<0.0001)
p, Immobility Time (min 1) (female 129S6/SvEv mice [1]; [5]): <0.0001
p, Immobility Time (min 2) (female 129S6/SvEv mice [1]; [5]): 0.0002
p, Immobility Time (min 3) (female 129S6/SvEv mice [1]; [5]): 0.0002
p, Immobility Time (min 4) (female 129S6/SvEv mice [1]; [5]): 0.0090
p, Immobility Time (min 5) (female 129S6/SvEv mice [1]; [5]): 0.0016
p, Immobility Time (min 6) (female 129S6/SvEv mice [1]; [5]): 0.0001
p, Immobility Time Average (min 1-6) (female 129S6/SvEv mice [1]; [5]): <0.0001
p, Immobility Time (min 1) (female 129S6/SvEv mice [1]; [6]): 0.9371
p, Immobility Time (min 2) (female 129S6/SvEv mice [1]; [6]): 0.5853
p, Immobility Time (min 3) (female 129S6/SvEv mice [1]; [6]): 0.7490
p, Immobility Time (min 4) (female 129S6/SvEv mice [1]; [6]): 0.6033
p, Immobility Time (min 5) (female 129S6/SvEv mice [1]; [6]): 0.9482
p, Immobility Time (min 6) (female 129S6/SvEv mice [1]; [6]): 0.9756
p, Immobility Time Average (min 3-6) (female 129S6/SvEv mice [1]; [6]): 0.9690
*, Immobility Time (min 1) (female 129S6/SvEv mice [1]; [7]): * (* p<0.05)
p, Immobility Time (min 1) (female 129S6/SvEv mice [1]; [7]): 0.0187
p, Immobility Time (min 1) (female 129S6/SvEv mice [1]; [8]): 0.6395
p, Immobility Time (min 2) (female 129S6/SvEv mice [1]; [8]): 0.9313
p, Immobility Time (min 3) (female 129S6/SvEv mice [1]; [8]): 0.7755
p, Immobility Time (min 4) (female 129S6/SvEv mice [1]; [8]): 0.5198
p, Immobility Time (min 5) (female 129S6/SvEv mice [1]; [8]): 0.9023
p, Immobility Time (min 6) (female 129S6/SvEv mice [1]; [8]): 0.5995
p, Immobility Time Average (min 3-6) (female 129S6/SvEv mice [1]; [8]): 0.8325
p, Fisher's PLSD, Immobility Time Average (min 3-6), Sham drug vs. OVX drug (female 129S6/SvEv mice [1]; Same drug, Sham vs. ovariectomized, 1 week prophylactic drug, Forced Swim Test Day 2, K (10), (2R,6R)-HNK (0.025), FIG. 5C): 0.2375
p, Fisher's PLSD, Immobility Time Average (min 3-6), Sham Sal vs. Sham drug (female 129S6/SvEv mice [1]; [9]): 0.0405
significance (*), Fisher's PLSD, Immobility Time Average (min 3-6), Sham Sal vs. Sham drug (female 129S6/SvEv mice [1]; [9]): * (* p<0.05)
Immobility in the FST (Day 1 and Day 2) vs saline (female 129S6/SvEv mice [1]; female mice): Neither (R,S)-ketamine nor (2R,6R)-HNK significantly affected immobility time
Immobility in the FST (Day 1 and Day 2) vs saline (female 129S6/SvEv mice [1]; [10]): did not reduce immobility levels
Prophylactically effective dose in females (female 129S6/SvEv mice [1]; female mice, 1 week before stressor): 10 mg/kg
Immobility in the FST vs saline (female 129S6/SvEv mice [1]; ovariectomized mice with cyclic E2 and P4 replacement, drug 1 week before CFC, listed as (R, S)-ketamine): significantly less immobile compared to control saline mice; also recorded: significantly reduced immobility
Prophylactic efficacy against stress-induced depressive-like behavior (female 129S6/SvEv mice [1]; female mice): significantly reduced stress-induced depressive-like behavior; also recorded: significantly decreased stress-induced depressive-like behavior; also recorded: effective prophylactics against a variety of stressors; also recorded: protect against stress-induced depressive-like behavior
Prophylactic efficacy against stress-induced depressive-like behavior (female 129S6/SvEv mice [1]; [10]): prophylactic against stress-induced depressive-like behavior
* (significance), Sal vs. drug, Fisher's PLSD: Immobility Time (min 2), Forced Swim Test Day 2 (female 129S6/SvEv mice [2]): * (* p<0.05)
* (significance), Sal vs. drug, Fisher's PLSD: Immobility Time (min 5), Forced Swim Test Day 2 (female 129S6/SvEv mice [2]): ** (** p<0.01)
* (significance), Sal vs. drug, Fisher's PLSD: Immobility Time (min 6), Forced Swim Test Day 1 (female 129S6/SvEv mice [2]): ** (** p<0.01)
* (significance), Sal vs. drug, Fisher's PLSD: Immobility Time (min 6), Forced Swim Test Day 2 (female 129S6/SvEv mice [2]): ** (** p<0.01)
* (significance), Sal vs. drug, Fisher's PLSD: Immobility Time Average (min 3-6), Forced Swim Test Day 2 (female 129S6/SvEv mice [2]): ** (** p<0.01)
p, Sal vs. drug, Fisher's PLSD: Immobility Time (min 1), Forced Swim Test Day 1 (female 129S6/SvEv mice [2]): 0.1619
p, Sal vs. drug, Fisher's PLSD: Immobility Time (min 1), Forced Swim Test Day 2 (female 129S6/SvEv mice [2]): 0.0533
p, Sal vs. drug, Fisher's PLSD: Immobility Time (min 2), Forced Swim Test Day 1 (female 129S6/SvEv mice [2]): 0.4051
p, Sal vs. drug, Fisher's PLSD: Immobility Time (min 2), Forced Swim Test Day 2 (female 129S6/SvEv mice [2]): 0.0325
p, Sal vs. drug, Fisher's PLSD: Immobility Time (min 3), Forced Swim Test Day 1 (female 129S6/SvEv mice [2]): 0.5575
p, Sal vs. drug, Fisher's PLSD: Immobility Time (min 4), Forced Swim Test Day 1 (female 129S6/SvEv mice [2]): 0.4015
p, Sal vs. drug, Fisher's PLSD: Immobility Time (min 5), Forced Swim Test Day 1 (female 129S6/SvEv mice [2]): 0.4985
p, Sal vs. drug, Fisher's PLSD: Immobility Time (min 5), Forced Swim Test Day 2 (female 129S6/SvEv mice [2]): 0.0011
p, Sal vs. drug, Fisher's PLSD: Immobility Time (min 6), Forced Swim Test Day 1 (female 129S6/SvEv mice [2]): 0.0022
p, Sal vs. drug, Fisher's PLSD: Immobility Time (min 6), Forced Swim Test Day 2 (female 129S6/SvEv mice [2]): 0.0006
p, Sal vs. drug, Fisher's PLSD: Immobility Time Average (min 3-6), Forced Swim Test Day 2 (female 129S6/SvEv mice [2]): 0.0005
p, Sal vs. drug, Fishers PLSD: Immobility Time Average (min 1-6), Forced Swim Test Day 1 (female 129S6/SvEv mice [2]): 0.1873
